Tests used:
[1] = system: RKO colon carcinoma cell line; assay: Tetrazolium dye proliferation assay, RKO; type: cell-based; settings: Colon carcinoma cell, 120 h; MTT, 5 days post addition of test compound, 500 cell per well
Protocol: (§1) The cell lines used were MDA-MB435, a breast carcinoma dell line and RKO, a colon carcinoma cell line.
(§2) Teh estrogen receptor negative epithelial breast carcinoma line (MDA-MB435) was purchased from American Type Cell Culture Collection (ATCC; Rockville, Md.) and was grown in the medium recommended by ATCC. For analysis of the test compounds on growth of these cells, the cells were plated at 2000 cells per well in a 96-well tissue culture plate, and were incubated overnight at 37° C. with 5% CO2. The next day, the test compounds were dissolved in 100% dimethyl sulfoxide (DMSO) to yield a 10 mM stock solution. […] The compounds were then serially diluted in medium with 1.2% DMSO. One-fourth final volume of the diluted compounds was transferred to 96 well plates. Test compounds were assayed in duplicate. DMSO was added to a row of “control cells” such that the final concentration of DMSO in each well was 0.3%. Wells to which no cells were added served as the “blank.” Wells to which no inhibitor was added served as “no inhibitor control”. The plates were returned to the incubator, and 5 days post addition of test compound, were analyzed as described below.
(§3) 3-(4,5-Dimethylthiazole-2-yl)-2,5-diphenyl-2H-tetrazolium bromide (thiazolyl blue; MTT) was added to each well to yield a final concentration of 1 mglmL. The plates were then incubated at 37° C. for 3 hours. The plates were centrifuged at 1000 rpm for 5 minutes prior to aspiration of the MTT-containing medium. The MTT-containing medium was then removed and 100 μL 100% EtOH was added to each well to dissolve the resulting formazan metabolite. To ensure complete dissolution, plates were shaken for 15 minutes at room temperature. Absorbencies were read in a microliter plate reader (Molecular Dynamics) at a wavelength of 570 nm with a 650 nm reference. Percent inhibition was calculated by subtracting the absorbency of the blank (no cell) wells from all wells, then subtracting the division of the average absorbency of each test duplicate by the average of the controls from 1.00. Inhibitory concentrations (IC50) were determined from the linear regression of a plot of the logarithm of the concentration versus the percent inhibition.
The colon carcinoma line RKO was also obtained from the ATCC and was tested according to the same protocol provided above except that the cell line RKO was plated at 500 cell per well.

[2] = system: MDA-MB435 breast carcinoma cell line; assay: Tetrazolium dye proliferation assay, MDA-MB435; type: cell-based; settings: Homo sapiens, MDA-MB-435, 120 h; MTT, 5 days post addition of test compound, 2000 cells per well
Protocol: as §1, §2, §3

[3] = molecular target: T1, human Cyclin E/CDK2 (Homo sapiens, UniProt P24941); assay: CDK2 FlashPlate Assay; type: biochemical; settings: inhibition of Rb phosphorylation, 33P-ATP, 25 minutes at room temperature
T1 construct: made in house; host or cells: insect cells
Protocol: To determine inhibition of CDK2 activity, purified recombinant retinoblastoma (Rb) protein was coated on 96 well FlashPlates (New England Nuclear, Boston, Mass.). […] Recombinant active human Cyclin E/CDK2 complexes were partially purified from extracts of insect cells. […] Plates were incubated for 25 minutes at room temperature with shaking, then washed and counted in the Topcount scintillation counter (Packard Instrument Co., Downers Grove, Ill.). Dilutions of test compounds were tested in duplicate in each assay. The percent inhibition of Rb phosphorylation, which is a measure of the inhibition of CDK2 activity, was determined according to the following formula: [formula]
where “test compound” refers to the average counts per minute of the test duplicates, “nonspecific” refers to the average counts per minute when no Cyclin E/CDK2 was added, and “total” refers to the average counts per minute when no compound was added.

IC50 [1]: ≤ 10 µM
IC50 [2]: ≤ 10 µM
IC50 [3]: ≤ 10 µM
Structure (SMILES): O=C1Nc2ccc(F)c3c(OCCO)cc(-c4ccc[nH]4)c1c23 [Example 16, 6-Fluoro-5-(2-hydroxyethoxy)-3-(1H-pyrrol-2-yl)-1H-benzo[cd]indol-2-one]
